Patent US20260224573A1, “CRYSTAL FORM OF COMPOUND, AND PREPARATION METHOD AND USE THEREOF” (FELICAMED BIOTECHNOLOGY CO., LTD., priority 2023, published 2026)
≈ marks a conversion by molar mass, not a printed value. Where two headings read alike, the source gives them in different places.

Assays:
[1] = TGA weight loss / thermal stability; format: physicochemical
Excerpt: TGA and DSC patterns were collected on a TA Q5000 thermogravimetric analyzer and a TA Discovery 2500 differential scanning calorimeter, respectively.
TGA results were collected on a TA Discovery 5500 thermogravimetric analyzer, and DSC results were collected on a TA Discovery 2500 differential scanning calorimeter.

[2] = Assessment of dynamic solubility; format: physicochemical; conditions: for FC: crystal transfer (XRPD of solid) / pH of filtrate: 37° C.; for solubility / solubility at 1 h / solubility at 2 h / solubility at 4 h / solubility at 24 h: 37 °C, thermodynamic from solid; for solubility at 1 h / solubility at 2 h / solubility at 4 h / solubility at 24 h: read-out: S: solubility, calculated as free form
[3] = Assessment of 24-h solubility in pH buffers; format: physicochemical; conditions: room temperature
[4] = Excerpt: DVS isotherms were collected on an SMS (Surface Measurement Systems) DVS Intrinsic.
[5] = Acute toxicity test, single oral intragastric administration; format: in vivo; conditions: Sprague-Dawley, rat, in vivo
Method: (§1) In this experiment, all animals were randomly divided into 5 groups (5 animals/sex/group), received the drug at 97 mg/kg, 174 mg/kg, 312 mg/kg, 559 mg/kg, and 1000 mg/kg, respectively, and received signal intragastric administration orally. […] All animals received administration according to their latest weighed body weight. The drug was stirred for at least 10 min before administration, and continuously stirred during administration until the administration of the sample at this concentration was completed. The animals were fasted for 11 h to 12 h before administration and resumed eating approximately 2 h after administration, with no restriction on drinking water.
(§2) All animals underwent a comprehensive physical examination by a veterinarian before administration. During the acclimation period, cage-side observation was performed once or twice a day, and detailed clinical observation was performed once a day. During the experiment, cage-side observation was performed twice a day (once on the day of dissection), and detailed clinical observation was performed once or twice a day. All surviving animals were weighed once on the day of random grouping (Day-1), Day 1 (before administration), Day 3, Day 5, Day 7, and Day 8; and their 24±1-hour food consumption was measured once on Day 1 (Day 1 to Day 2), Day 2 (Day 2 to Day 3), and Day 6 (Day 6 to Day 7). At the end of the experimental (Day 8), all surviving animals were euthanized by carbon dioxide inhalation and abdominal aorta/vein bleeding and then subjected to gross anatomical examination. Animals that died during the experiment were also subjected to gross anatomical examination.

[6] = test system: SD rats; experiment: as above; format: in vivo; conditions: female rats
Method: as §1, §2

Remark: listed apart in the source

SMILES: CC[S@@](=N)(=O)C[C@H]1CC[C@H](N(C)c2ncnc3[nH]ccc23)CC1 [Free crystal form A]
- thermal stability ([1]; comparison of TGA/DSC patterns): high
- TGA weight loss ([1]; heated from room temperature to 180° C.): 1.7%
- FC: crystal transfer (XRPD of solid) ([2]; FaSSIF, 1 h): No
- pH of filtrate ([2]; FaSSIF, 1 h): 6.6
- FC: crystal transfer (XRPD of solid) ([2]; FaSSIF, 2 h): No
- pH of filtrate ([2]; FaSSIF, 2 h): 6.6
- FC: crystal transfer (XRPD of solid) ([2]; FaSSIF, 4 h): No
- pH of filtrate ([2]; FaSSIF, 4 h): 6.6
- FC: crystal transfer (XRPD of solid) ([2]; FaSSIF, 24 h): No
- pH of filtrate ([2]; FaSSIF, 24 h): 6.6
- FC: crystal transfer (XRPD of solid) ([2]; FeSSIF, 1 h): No
- pH of filtrate ([2]; FeSSIF, 1 h): 5.3
- FC: crystal transfer (XRPD of solid) ([2]; FeSSIF, 2 h): No
- pH of filtrate ([2]; FeSSIF, 2 h): 5.3
- FC: crystal transfer (XRPD of solid) ([2]; FeSSIF, 4 h): No
- pH of filtrate ([2]; FeSSIF, 4 h): 5.3
- FC: crystal transfer (XRPD of solid) ([2]; FeSSIF, 24 h): No
- solubility ([2]; H2O and FaSSIF, water, in H2O and FaSSIF): 2100 to 2400 µg/mL (≈ 6.26 to 7.15 mM)
- FC: crystal transfer (XRPD of solid) ([2]; H2O, 1 h): No
- FC: crystal transfer (XRPD of solid) ([2]; H2O, 2 h): No
- FC: crystal transfer (XRPD of solid) ([2]; H2O, 4 h): No
- pH of filtrate ([2]; H2O, 4 h): 6.7
- FC: crystal transfer (XRPD of solid) ([2]; H2O, 24 h): No
- solubility ([2]; SGF and FeSSIF, simulated gastric fluid, in SGF and FeSSIF, sample not fully dissolved): 9000 to 10000 µg/mL (≈ 26.8 to 29.8 mM)
- FC: crystal transfer (XRPD of solid) ([2]; SGF, 1 h): No
- FC: crystal transfer (XRPD of solid) ([2]; SGF, 2 h): No
- pH of filtrate ([2]; SGF, 2 h): 5.2
- FC: crystal transfer (XRPD of solid) ([2]; SGF, 4 h): No
- pH of filtrate ([2]; SGF, 4 h): 5.2
- FC: crystal transfer (XRPD of solid) ([2]; SGF, 24 h): No
- solubility at 1 h ([2]; fed state simulated intestinal fluid (FeSSIF), fessif, FeSSIF, 1 h): 9400 µg/mL (≈ 28 mM)
- solubility at 2 h ([2]; fed state simulated intestinal fluid (FeSSIF), fessif, FeSSIF, 2 h): 9200 µg/mL (≈ 27.4 mM)
- solubility at 4 h ([2]; fed state simulated intestinal fluid (FeSSIF), fessif, FeSSIF, 4 h): 9400 µg/mL (≈ 28 mM)
- solubility at 24 h ([2]; fed state simulated intestinal fluid (FeSSIF), fessif, FeSSIF, 24 h): 9900 µg/mL (≈ 29.5 mM)
- solubility at 1 h ([2]; simulated gastric fluid (SGF), simulated gastric fluid, SGF, 1 h): 9000 µg/mL (≈ 26.8 mM)
- solubility at 2 h ([2]; simulated gastric fluid (SGF), simulated gastric fluid, SGF, 2 h): 8900 µg/mL (≈ 26.5 mM)
- solubility at 4 h ([2]; simulated gastric fluid (SGF), simulated gastric fluid, SGF, 4 h): 8800 µg/mL (≈ 26.2 mM)
- solubility at 24 h ([2]; simulated gastric fluid (SGF), simulated gastric fluid, SGF, 24 h): 9100 µg/mL (≈ 27.1 mM)
- FC: crystal transfer ([3]; Buffer (pH = 2.0)): No
- FC: crystal transfer ([3]; Buffer (pH = 7.4)): No
- solubility at 24 h ([3]; buffer pH 7.4, pH 7.4, aqueous buffer, thermodynamic from solid, Buffer (pH = 7.4), read-out: S: solubility, calculated as free form): 1700 µg/mL (≈ 5.07 mM)
- hygroscopicity ([4]; 25° C./80% RH): slight hygroscopicity
- Crystal transformation after DVS ([4]; XRPD before and after DVS): No
- LD50 at 7 d ([5]; oral, female rats, read-out: LD50 95% confidence interval): 313 to 558 mg/kg
- LD50 at 7 d ([5]; oral, male rats, read-out: LD50 95% confidence interval): 429 to 818 mg/kg
- MTD at 7 d ([5]; oral, male rats, read-out: maximum tolerance dose (MTD)): 312 mg/kg
- LD50 at 7 d ([5]; po, female rats, single intragastric administration, 7 d observation, read-out: LD50): 418 mg/kg
- LD50 at 7 d ([5]; po, male rats, single intragastric administration, 7 d observation, read-out: LD50): 592 mg/kg
- maximum tolerance dose [6]: 174 mg/kg
- UPLC peak Area, RRT 1.00 (25° C./60% RH/4 weeks): 99.71%
- UPLC peak Area, RRT 1.47 (25° C./60% RH/4 weeks): 0.06%
- UPLC peak Area, RRT 1.63 (25° C./60% RH/4 weeks): 0.05%
- UPLC peak Area, RRT 2.10 (25° C./60% RH/4 weeks): 0.10%
- UPLC peak Area, RRT 2.94 (25° C./60% RH/4 weeks): 0.07%
- Crystal form Transform (25° C./60% RH/4 weeks, open): No
- Purity (25° C./60% RH/4 weeks, open): 99.71 area %
- UPLC peak Area, RRT 1.00 (40° C./75% RH/4 weeks): 99.72%
- UPLC peak Area, RRT 1.47 (40° C./75% RH/4 weeks): 0.06%
- UPLC peak Area, RRT 1.63 (40° C./75% RH/4 weeks): 0.05%
- UPLC peak Area, RRT 2.10 (40° C./75% RH/4 weeks): 0.10%
- UPLC peak Area, RRT 2.94 (40° C./75% RH/4 weeks): 0.07%
- Crystal form Transform (40° C./75% RH/4 weeks, open): No
- Purity (40° C./75% RH/4 weeks, open): 99.72 area %
- UPLC peak Area, RRT 1.47 (80° C./1 d): 0.06%
- UPLC peak Area, RRT 1.63 (80° C./1 d): 0.05%
- UPLC peak Area, RRT 2.10 (80° C./1 d): 0.10%
- UPLC peak Area, RRT 2.94 (80° C./1 d): 0.08%
- Crystal form Transform (80° C./1 d, closed): No
- UPLC peak Area, RRT 1.47 (Starting): 0.05%
- UPLC peak Area, RRT 1.63 (Starting): 0.05%
- UPLC peak Area, RRT 2.10 (Starting): 0.10%
- UPLC peak Area, RRT 2.94 (Starting): 0.07%
